Reference: patent US12522660B2, “Methods for selection and stimulation of cells and apparatus for same” (C3S2 GMBH, priority 2018, dated 2026)

Key:
mTOR = assay: Intracellular S6 phosphorylation (marker of mTOR inhibition) in engineered T cells; assay type: cell-based, human; settings: live CD8+ T cells; 1 μM at stimulation (1 mM printed for later steps)
Description: (§1) CD4+ and CD8+ T cells were isolated by immunoaffinity-based enrichment from leukapheresis samples from human donor subjects. […] The T cells cultured with our without Compound 63 were incubated overnight (approximately 24 hr) at 37° C., and were then transduced in serum-free culture media with our without Compound 63 ([…]) with a lentiviral vector encoding an anti-CD19 CAR. […] Following transduction, the cells were incubated in serum free media without recombinant cytokines (basal media) and with or without Compound 63 (1 mM) and allowed to incubate at about 37.0° C. in an incubator for up to 96 hours after initiation of the stimulation with the anti-CD3/anti-CD28 oligomeric stimulatory reagent (until day 5 of the process). […] The cryofrozen engineered CD4+ and CD8+ T cells were thawed, and T cells were assessed for intracellular S6 phosphorylation, a ribosomal protein and marker of mTOR inhibition, and co-stained for surface expression of CD4 or CD8 and for CCR7 and CD45RA as markers of memory subsets. pS6 expression in live CD8+ T cells by memory subsets was shown by the expression of CCR7 and CD45RA as shown in FIG. 6A. As shown, incubation with Compound 63 decreased the mean fluorescence intensity of stimulated memory T cell subsets, […], indicating an inhibition of mTOR, while having no significant effect on the percentage or total number of viable cells over time.

CD4+ and CD8+ T cells [1] = assay: Viability and live cell count of engineered T cell composition; assay type: cell-based, human; settings: generated composition; produced with versus without compound
Description: as §1

CD4+ and CD8+ T cells [2] = assay: Caspase, CD27/CCR7 phenotype and intracellular cytokines of thawed engineered T cells; assay type: cell-based, human
Description: CD4+ and CD8+ T cells were isolated by immunoaffinity-based enrichment from leukapheresis samples from human donor subjects. At day 1, isolated CD4+ and CD8+ T cells were mixed 1:1 and stimulated with an anti-CD3/anti-CD28 oligomeric stimulatory reagent generated as described in Example 1 in serum-free media supplemented with recombinant IL-2 (100 IU/mL), recombinant IL-7 (600 IU/mL), and recombinant IL-15 (100 IU/mL) with or without 1 μM of 2-(3-hydroxyphenyl)-9-(2-isopropylphenyl)-8-oxo-8,9-dihydro-7H-purine-6-carboxamide (Compound 63). The T cells cultured with our without Compound 63 were incubated overnight (approximately 24 hr) at 37° C., and were then transduced in serum-free culture media with our without Compound 63 ([…]) with a lentiviral vector encoding an anti-CD19 CAR. The CAR contained an scFv antigen-binding domain specific for CD19 (derived from FMC63), a CD28 transmembrane region, a 4-1BB costimulatory signaling region, and a CD3-zeta derived intracellular signaling domain. Following transduction, the cells were incubated in serum free media without recombinant cytokines (basal media) and with or without Compound 63 (1 mM) and allowed to incubate at about 37.0° C. in an incubator for up to 96 hours after initiation of the stimulation with the anti-CD3/anti-CD28 oligomeric stimulatory reagent (until day 5 of the process). […] Following incubation CD4+ and CD8+ T cells from each donor were harvested, formulated, and cryofrozen.
Thawed cells generated by the process described were assessed for a marker of apoptosis (e.g., percentage of caspase positive CAR-T cells), phenotypic profile, and ability to produce intracellular cytokines following stimulation with PMA/Ionomycin and a Golgi Inhibitor. […] Thawed cells also were stained for surface expression of CD27 and CCR7 by flow cytometry.

anti-CD19 CAR T cells = assay: Long-term (12 days) stimulation with anti-idiotype antibody beads: expansion and survival; assay type: cell-based, human; settings: anti-ID antibody beads
Description: CD4+ and CD8+ T cells were isolated by immunoaffinity-based enrichment from leukapheresis samples from human donor subjects. At day 1, isolated CD4+ and CD8+ T cells were mixed 1:1 and stimulated with an anti-CD3/anti-CD28 oligomeric stimulatory reagent generated as described in Example 1 in serum-free media supplemented with recombinant IL-2 (100 IU/mL), recombinant IL-7 (600 IU/mL), and recombinant IL-15 (100 IU/mL) with or without 1 μM of 2-(3-hydroxyphenyl)-9-(2-isopropylphenyl)-8-oxo-8,9-dihydro-7H-purine-6-carboxamide (Compound 63). The T cells cultured with our without Compound 63 were incubated overnight (approximately 24 hr) at 37° C., and were then transduced in serum-free culture media with our without Compound 63 ([…]) with a lentiviral vector encoding an anti-CD19 CAR. The CAR contained an scFv antigen-binding domain specific for CD19 (derived from FMC63), a CD28 transmembrane region, a 4-1BB costimulatory signaling region, and a CD3-zeta derived intracellular signaling domain. […]
To further assess the functional activity of the cells, the generated T cell compositions were stimulated long-term over 12 days with beads conjugated with an anti-idiotype (ID) antibody against the anti-CD19 CAR, and expansion and survival of the cells were monitored (FIG. 7F, left panel) and total expansion metric calculated by area under the curve (FIG. 7F, right panel).

[3] = biological target: Strep-Tactin® (mutein streptavidin, SEQ ID NO: 4) (Streptomyces avidinii, UniProt P22629, E68V/S69T/V71R); settings: general statement of the description, no experiment of the applicant; read-out: binding affinity KD for binding to Strep-Tactin®; cited from earlier work
Strep-Tactin® (mutein streptavidin, SEQ ID NO: 4), sequence (P22629 other isoform, or with tags, fused parts or gaps E68V/S69T/V71R): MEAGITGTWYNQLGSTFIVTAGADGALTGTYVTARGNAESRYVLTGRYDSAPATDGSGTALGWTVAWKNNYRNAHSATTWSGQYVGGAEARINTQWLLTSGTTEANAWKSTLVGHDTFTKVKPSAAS

Compound | pS6 mean fluorescence intensity in memory T cell subsets (Temra, Tem, Tcm) (mTOR) | percent viable cells (CD4+ and CD8+ T cells [1]) | total live cells (CD4+ and CD8+ T cells [1]) | phenotypic subset profile by CD27 and/or CCR7 expression (CD4+ and CD8+ T cells [2]; CD8+ and CD4+ T cells) | level of intracellular cytokines IL2, IFNg, or TNF (CD4+ and CD8+ T cells [2]; after PMA/Ionomycin and Golgi inhibitor, CD8+ and CD4+ T cells) | intracellular caspase expression (CD4+ and CD8+ T cells [2]; thawed CAR-T cells, with versus without compound) | function (expansion and survival) after long-term CAR-specific stimulation (anti-CD19 CAR T cells) | Kd [3] [nM]
CC(C)c1ccccc1-n1c(=O)[nH]c2c(C(N)=O)nc(-c3cccc(O)c3)nc21 [Compound 63, 2-(3-hydroxyphenyl)-9-(2-isopropylphenyl)-8-oxo-8,9-dihydro-7H-purine-6-carboxamide] | decreased | did not impact | did not impact | did not substantially alter | substantially improved | less | improved function | 
WSHPQFEK [Strep-Tag® II] |  |  |  |  |  |  |  | ~1000
